# Literature values as cited in patent US20230405018A1, “FLUMAZENIL FORMULATIONS FOR SUBCUTANEOUS INJECTION AND METHODS OF TREATMENT USING GABA RECEPTOR MODULATORS” (Bexson Biomedical, Inc., priority 2020, published 2023).
# Like-named read-outs stand apart in the source and are kept apart here.
# What was measured:
# [1] = reported
# [2] = acidic USP flumazenil preparations (pH ~4)
# [3] = tested on: benzodiazepine withdrawal symptoms
Solubility of SBE-β-CD [1] [mg/mL],Solubility / concentration of flumazenil in USP preparations [2] [mg/mL],Systemic availability after first pass hepatic metabolism (in vivo),"Oral bioavailability (in vivo, po)",Half-life (rapid metabolism in the liver) [min],Molecule,"Effect on withdrawal, craving and cessation ([3]; bolus administrations in conjunction with benzodiazepine tapering)",Effect on withdrawal symptoms ([3]; continuous 2 mg/24 h over 96 h by IV with oxazepam tapering),"Effect on withdrawal symptoms ([3]; ~1-2 mg bolus over several hours, high dose benzodiazepine patients abstinent at least three weeks)"
600,–,–,–,–,sulfobutyl-ether-beta-cyclodextrin [SBE-β-CD],–,–,–
–,~0.1,less than 25%,extremely limited and poor,4 to 11,"CCOC(=O)c1ncn2c1CN(C)C(=O)c1cc(F)ccc1-2 [flumazenil, ethyl 8-fluoro-5,6-dihydro-5-methyl-6-oxo-4H-imidazo[1,5-a][1,4] benzodiazepine-3-carboxylate]","reduction of benzodiazepine withdrawal symptoms, reduced craving, and increased completion of cessation of benzodiazepines without relapse",drastically curtail withdrawal symptoms,reduce withdrawal symptoms
